Results taken from patent US7462480B2, “Stimulation of microbial dechlorination of polychorinated biphenyls with halogenated ethenes” (University of Maryland Biotechnology Institute, priority 2002, dated 2008).

Columns and labels:
[1] = test system: O-17; assay: anaerobic enrichment culture of PCB dechlorinating bacterium O-17 with tetrachloroethene; type: cell-based, bacterium ortho-dechlorinating strain O-17
Description: (§1) Culture Conditions. A sterile media was prepared composed of at least one of the following components in grams per liter (final concentration) of demineralized water: Na2CO3, 3.0; Na2HPO4, 0.6; NH4Cl, 0.5; cysteine-HCl.H2O, 0.25; Na2S.9H2O, 0.25; resazurin, 0.001. In addition, 1% (v/v) each of vitamin and trace element solutions was added. An anaerobic enrichment culture comprising either O-17 (GenBank Accession #: AF058005; Appl Environ Microbiol. 1998 September; 64(9):3359-67)or DF-1 (GenBank Accession #: AF393781; Appl Environ Microbiol. 2002 February; 68(2):807-12)capable of dechlorination of 2,3,5,6-tetrachlorobiphenyl (2,3,5,6-CB) in the absence of sediment was used in this study. Cultures were incubated at 30° C. in the dark. All gases were passed through a column of reduced copper turnings at 350° C. to remove traces of O2. Media (8 ml) were dispersed into culture tubes (16×160 mm) and sealed with Teflon®-lined butyl stoppers (The West Company, Lionville, Pa.) secured by aluminum crimp collars (Bellco Glass, Inc., Vineland, N.J.).
(§2) Congener 2,3,5,6-tetrachlorobiphenyl (2,3,5,6-CB) was also solubilized in tetrachloroethene and added to a fresh anaerobic enrichment culture comprising either O-17 or DF-1 and was incubated under strict anaerobic conditions at 30° C. in the dark. […]

[2] = test system: DF-1; assay: anaerobic enrichment culture of PCB dechlorinating bacterium DF-1 with tetrachloroethene; type: cell-based, bacterium double flank-dechlorinating strain DF-1
Description: as §1, §2

[3] = partially soluble in water; cited from earlier work
[4] = 2,3,5,6-CB solubilized in tetrachloroethene, strict anaerobic conditions, 30° C. in the dark
[5] = PCBs and tetrachloroethene combined, simultaneously dechlorinated

Structure (SMILES): ClC(Cl)=C(Cl)Cl [tetrachloroethene]
- population growth density relative to culture containing 2,3,5,6-CB alone [1, 4]: increased population growth density
- effect on PCB dechlorination [1, 5]: did not inhibit or significantly delay PCB dechlorination
- population growth density relative to culture containing 2,3,5,6-CB alone [2, 4]: increased population growth density
- effect on PCB dechlorination [2, 5]: did not inhibit or significantly delay PCB dechlorination
- solubility in water [3]: up to 1 mM
